The molecules below were run against T1, Pantetheinase [T26I] (Homo sapiens, UniProt O95497, T26I) (assay: Enzymatic Assay).
T1 construct: gene VNN1
Method: Method 1:Vanin-1 Enzymatic Assay:The test compounds are dissolved in 100% DMSO at a concentration of 10 mM and in a first step diluted in DMSO to a concentration of 5 mM, followed by serial dilution steps in 100% DMSO. Dilution factor and number of dilution steps may vary according to needs. Typically 8 different concentrations by 1:5 dilutions are prepared, a further intermediate dilutions of the substances is carried out with assay buffer resulting in 1% final DMSO concentration in the assay. 0.15 nM of FLAG-tagged Vanin-1 (AA 22-493, T26I, produced internally) and test compounds are incubated at room temperature for 15 minutes in assay buffer (1 mM DTT, 0.0025% Brij-35, 50 mM HEPES, pH7.5). 3 μM D-Pantethine (Sigma, Cat#P2125-5G) in assay buffer is added and incubated for additional 30 minutes at room temperature. Reaction is stopped by adding equal volume of stop solution as the reaction mixture to reach 5 nM Nevirapine (as an internal standard) and 0.5% TFA. Assay plates are centrifuged for 2 minutes and the formation of pantothenic acid is detected by RapidFire Mass Spectrometry (mobile phase A: 0.1% formic acid in water, mobile phase B: 100% methanol) using graphitic carbon cartridge (Agilent Cat #G9206A).

T1 sequence (O95497 22-491 T26I limits assumed): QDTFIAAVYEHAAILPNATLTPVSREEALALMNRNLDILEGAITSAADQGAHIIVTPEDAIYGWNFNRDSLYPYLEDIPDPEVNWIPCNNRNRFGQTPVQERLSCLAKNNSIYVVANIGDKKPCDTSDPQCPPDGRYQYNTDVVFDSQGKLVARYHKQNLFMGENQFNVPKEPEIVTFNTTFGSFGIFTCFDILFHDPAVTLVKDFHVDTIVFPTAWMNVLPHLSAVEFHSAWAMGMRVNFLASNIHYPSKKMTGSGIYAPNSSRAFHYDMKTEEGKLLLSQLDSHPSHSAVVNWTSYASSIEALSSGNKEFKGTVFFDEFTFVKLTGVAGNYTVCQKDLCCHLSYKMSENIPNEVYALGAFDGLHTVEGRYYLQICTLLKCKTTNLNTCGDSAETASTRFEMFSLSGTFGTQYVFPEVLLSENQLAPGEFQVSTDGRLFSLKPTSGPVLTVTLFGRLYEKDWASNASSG

Compound	IC50 [nM]
O=C(c1cnc2c(c1)OCCN2)N1CCCCC1 [US10364255, Ex. 3]	2800
CC(=O)N(C)[C@H]1CCN(C(=O)c2cnc3c(c2)OCC(C)(C)N3)C1 [US10364255, Ex. 14]	0.5
CC(=O)N(C)[C@H]1CCN(C(=O)c2cnc3c(c2)O[C@H](C)CN3)C1 [US10364255, Ex. 32]	1.3
O=C(c1cnc2c(c1)OCCN2)N1CCC(c2ccncc2)C1 (stereo not drawn) [US10364255, Ex. 38]	14.2
CC(=O)N(C)[C@H]1CCN(C(=O)c2cnc3c(c2)OCCN3)C1 [US10364255, Ex. 39]	8.1
CC(=O)N(C)[C@H]1CCN(C(=O)c2cnc3c(c2)O[C@H](CO)CN3)C1 [US10364255, Ex. 41]	2.5
O=C(c1cnc2c(c1)O[C@H](CO)CN2)N1CCC(c2ccncc2)C1 (stereo partly drawn) [US10364255, Ex. 43]	3.7
CC(=O)N(C)[C@H]1CCN(C(=O)c2cnc3c(c2)OCCCN3)C1 [US10364255, Ex. 44]	1.7

From BindingDB's records for patent US10364255 (Boehringer Ingleheim International, 2019)
